Earlier results on six compounds are cited in US7022306B1, “Process for the production of hydrogen” (UOP LLC, priority 2003, dated 2006).

Series [1] deals with Rat.
For series [2], the system named is Rat. The source holds these as a separate data set.

Read-outs that look alike come from different tables or passages of the source.

Take `CCCC` [Butane]: the “Toxicity LC50 (mg/liter) Inhalation-Rat” value in series [1] (for 4 hours) was 658 for 4 hours mg/liter.

Regarding `CCCCC` [Pentane], in series [2], the “Toxicity LD50 (mg/kg) Oral-Rat” value was greater than 2000 mg/kg. Regarding `CC(C)OC(C)C` [Isopropylether], the “Toxicity LD50 (mg/kg) Oral-Rat” value in series [2] is listed as 8470 mg/kg. In the case of `CC(C)O` [Isopropanol], the “Toxicity LD50 (mg/kg) Oral-Rat” value in series [2] is 5045 mg/kg. Turning to `C` [Methane], the “Toxicity LC50 (mg/liter) Inhalation-Rat” value in series [1] was greater than 5 mg/L. `OC[C@@H](O)[C@@H](O)[C@H](O)[C@@H](O)CO` [Sorbitol]: in series [2], the “Toxicity LD50 (mg/kg) Oral-Rat” value is recorded as 15900 mg/kg.
